Data as given in patent publication US8163718B2, “Nucleoside analogues containing phosphonate or phosphonamide groups” (Gilead Sciences, Inc., priority 2008, dated 2012).

Legend:
Assay in all cases: Cytostatic cell culture assay (GI50), SRB
Type in all cases: cell-based
Details in all cases: 5 days incubation
[1] = test system: Hs-578
Source text: (§1) The assay is based on quantification of cell counts by a colorimetric detection of the cell associated proteins. The assay relies on the ability of sulforhodamine B (SRB) to bind to protein components of cells that have been fixed to tissue-culture plates by trichloroacetic acid (TCA). SRB is a bright-pink aminoxanthene dye with two sulfonic groups that bind to basic amino-acid residues under mild acidic conditions, and dissociate under basic conditions. As the binding of SRB is stoichiometric, the amount of dye extracted from stained cells is directly proportional to the cell mass.
(§2) Cell lines: All cell lines were obtained from ATCC (Manassas, Va.). Cultivation media containing Glutamax, and trypsin were purchased from Invitrogen (Carlsbad, Calif.). Doxorubicin, Clofarabine, TCA and SRB were from Sigma-Aldrich (St. Louis, Mo.). Gemcitabine was obtained from Moravek Biochemicals (Brea, Calif.)
(§3) • 1. Trypsinize the sub-confluent cells, count them, and adjust the cell concentrations according to the cell counts listed in Table 1. • 2. Distribute the cells into the 96-well plates in 150 μL of media. Incubate the plates overnight in humidified CO2 incubator at 37° C. • 3. Fix one plate of each cell line with TCA. Discard the cultivation media from the plates by flicking them gently and add 100 ul cold 10% (vol/vol) TCA to each well. Incubate the plates at 4 degree refrigerator for 1 hour. Discard TCA from the plates by flicking them gently. Rinse plates four times in a washing basin containing tap water. Store the plates at room temperature. These plates represent cell counts on day zero. • 4. Prepare a set of medium solutions containing various concentrations of tested compounds by making 5-fold serial dilutions in 96-well plate. Add 50 μL of the diluted compounds per well. Include controls with untreated cells and cells treated with doxorubicin, clofarabine and gemcitabine. • 5. Incubate the plates for 5 days at 37° C. • 6. Fix the plates with TCA. Discard the cultivation media from the plates by flicking them gently and add 100 ul cold 10% (vol/vol) TCA to each well. Incubate the plates at 4 degree refrigerator for 1 hour. Discard TCA from the plates by flicking them gently. Rinse plates four times in a washing basin containing tap water. • 7. Remove excess water by tapping the plates face down, gently on a paper towel. Allow the plates to air-dry at room temperature. • 8. Add 100 ul of 0.057% SRB solution in 1% (vol/vol) acetic acid to each well of the plates fixed with TCA on day zero and five. Leave at room temperature for 30 minutes. • 9. Flick the plates gently to discard SRB. Rinse the plates four times with 1% (vol/vol) Acetic Acid. • 10. Store the plates at 37 degree incubator to facilitate faster drying. • 11. Once the plates are completely dry, add 200 ul of 10 mM Tris base solution (pH 10.5) to each well. Leave at room temperature for 30 minutes for SRB to solubilize. • 12. Measure the OD at 500 nm in a microplate reader • 13. Calculate the percentage of cell-growth inhibition using the next formula: % of control cell growth=100×(ODsample−mean ODday0)/(ODneg control−mean ODday0)
(§4) For GI50 determination, plot a dose-response curve between the compound concentration and percent of growth inhibition. GI50 values can be derived by fitting dose-response curves using sigmoidal dose response equation.

[2] = test system: NCI-H23
Source text: as §1, §2, §3, §4

[3] = test system: BT-549
Source text: as §1, §2, §3, §4

[4] = test system: PC3
Source text: as §1, §2, §3, §4

[5] = test system: HCT-116
Source text: as §1, §2, §3, §4

[6] = test system: A549
Source text: as §1, §2, §3, §4

[7] = test system: HCT-15
Source text: as §1, §2, §3, §4

[8] = test system: Du-145
Source text: as §1, §2, §3, §4

| Structure (SMILES) | GI50 ([2]; Homo sapiens, NCI-H23, 120 h) [nM] | GI50 ([3]; Homo sapiens, BT-549, 120 h) [nM] | GI50 ([7]; Homo sapiens, HCT-15, 120 h) [nM] | GI50 ([8]; Homo sapiens, DU-145, 120 h) [nM] | GI50 ([4]; Homo sapiens, PC-3, 120 h) [nM] | GI50 ([5]; Homo sapiens, HCT-116, 120 h) [nM] | GI50 ([6]; Homo sapiens, A549, 120 h) [nM] | GI50 [1] [nM] | GI50 [4] [nM] | GI50 [5] [nM] | GI50 [6] [nM] | GI50 [2] [nM] | GI50 [3] [nM] | GI50 [7] [nM] | GI50 [8] [nM] | GI50 ([1]; Hs578, 120 h) [nM] |
| --- | --- | --- | --- | --- | --- | --- | --- | --- | --- | --- | --- | --- | --- | --- | --- | --- |
| CCCCOC(=O)[C@H](C)NP(=O)(COCCn1cnc2c(OCCC)nc(N)nc21)Oc1ccccc1 (single isomer, unassigned) [Example 52a] | 0.9 | 105 | 553 | 0.3 | – | – | – | 13 | 8 | 43 | 48 | – | – | – | – | – |
| CCCCOC(=O)[C@H](C)NP(=O)(COCCn1cnc2c(OCCC)nc(N)nc21)Oc1ccccc1 (single isomer, unassigned) [Example 52b] | – | – | – | – | – | – | – | 2 | 3 | 11 | 15 | 1 | 100 | 517 | 0.3 | – |
| CCCOc1nc(N)nc2c1ncn2CCOCP(=O)(N[C@@H](C)C(=O)OCC)Oc1ccccc1 (single isomer, unassigned) [Example 53a] | – | – | 2110 | – | – | – | – | 62 | 31 | 154 | 268 | 5 | 249 | – | 2 | – |
| CCCOc1nc(N)nc2c1ncn2CCOCP(=O)(N[C@@H](C)C(=O)OCC)Oc1ccccc1 (single isomer, unassigned) [Example 53b] | – | – | – | – | – | – | – | 177 | 180 | 329 | 647 | 70 | 564 | 2040 | 14 | – |
| COc1nc(N)nc2c1ncn2CCOCP(=O)(O)O [Example 2, [2-(2-Amino-6-methoxy-purin-9-yl)-ethoxymethyl]-phosphonic acid] | 589 | 4870 | 4650 | 475 | 3700 | 5900 | 2420 | – | – | – | – | – | – | – | – | 2010 |
| CCCCOc1nc(N)nc2c1ncn2CCOCP(=O)(O)O [Example 4, [2-(2-Amino-6-butoxy-purin-9-yl)-ethoxymethyl]-phosphonic acid] | 633 | 3760 | 2980 | 235 | 1440 | 3130 | 4540 | – | – | – | – | – | – | – | – | 3320 |
| CCOc1nc(N)nc2c1ncn2CCOCP(=O)(O)O [Example 5, [2-(2-Amino-6-ethoxy-purin-9-yl)-ethoxymethyl]-phosphonic acid] | 639 | 2000 | 2440 | 223 | 2480 | 3590 | 2840 | – | – | – | – | – | – | – | – | 2590 |
| Nc1nc(OC2CCCCC2)c2ncn(CCOCP(=O)(O)O)c2n1 [Example 6, [2-(2-Amino-6-cyclohexyloxy-purin-9-yl)-ethoxymethyl]-phosphonic acid] | 6000 | 17000 | 13000 | 439 | 3010 | > 10000 | > 10000 | – | – | – | – | – | – | – | – | 11000 |
| CCCCCOc1nc(N)nc2c1ncn2CCOCP(=O)(O)O [Example 7, [2-(2-Amino-6-pentyloxy-purin-9-yl)-ethoxymethyl]-phosphonic acid] | 596 | 2570 | 2610 | 101 | 595 | 2450 | 3360 | – | – | – | – | – | – | – | – | 1570 |
| Nc1nc(OC2CC2)c2ncn(CCOCP(=O)(O)O)c2n1 [Example 8, [2-(2-Amino-6-cyclopropoxy-purin-9-yl)-ethoxymethyl]-phosphonic acid] | 675 | 2710 | 4140 | 536 | 2830 | 5400 | 2820 | – | – | – | – | – | – | – | – | 3340 |
| Nc1nc(OC2CCC2)c2ncn(CCOCP(=O)(O)O)c2n1 [Example 9, [2-(2-Amino-6-cyclobutoxy-purin-9-yl)-ethoxymethyl]-phosphonic acid] | 359 | 1550 | 1220 | 77 | 955 | 1720 | 1830 | – | – | – | – | – | – | – | – | 1550 |
| Nc1nc(OC2CCCC2)c2ncn(CCOCP(=O)(O)O)c2n1 [Example 10, [2-(2-Amino-6-cyclopentyloxy-purin-9-yl)-ethoxymethyl]-phosphonic acid] | 603 | 2990 | 2380 | 54 | 1010 | 1790 | 3060 | – | – | – | – | – | – | – | – | 2260 |
| COCCOc1nc(N)nc2c1ncn2CCOCP(=O)(O)O [Example 11, {2-[2-Amino-6-(2-methoxy-ethoxy)-purin-9-yl]-ethoxymethyl}-phosphonic acid] | 1980 | > 10000 | > 10000 | 805 | 3760 | 11000 | 11000 | – | – | – | – | – | – | – | – | 5100 |
| Nc1nc(NC2CC2)c2ncn(CCOCP(=O)(O)O)c2n1 [Example 12, [2-(2-Amino-6-cyclopropylamino-purin-9-yl)-ethoxymethyl]-phosphonic acid] | 2190 | 70000 | 38000 | 1230 | 6100 | 38000 | 35000 | – | – | – | – | – | – | – | – | 18000 |

More lines, main results first:

| GI50 ([2]; Homo sapiens, NCI-H23, 120 h) [nM] | GI50 ([3]; Homo sapiens, BT-549, 120 h) [nM] | GI50 ([7]; Homo sapiens, HCT-15, 120 h) [nM] | GI50 ([8]; Homo sapiens, DU-145, 120 h) [nM] | GI50 ([4]; Homo sapiens, PC-3, 120 h) [nM] | GI50 ([5]; Homo sapiens, HCT-116, 120 h) [nM] | GI50 ([6]; Homo sapiens, A549, 120 h) [nM] | Structure (SMILES) | GI50 [1] [nM] | GI50 [4] [nM] | GI50 [5] [nM] | GI50 [6] [nM] | GI50 [2] [nM] | GI50 [3] [nM] | GI50 [7] [nM] | GI50 [8] [nM] | GI50 ([1]; Hs578, 120 h) [nM] |
| --- | --- | --- | --- | --- | --- | --- | --- | --- | --- | --- | --- | --- | --- | --- | --- | --- |
| 287 | 900 | 886 | 76 | 1100 | 1100 | 1240 | CCCOc1nc(N)nc2c1ncn2CCOCP(=O)(O)O [Example 1, [2-(2-Amino-6-propoxy-purin-9-yl)-ethoxymethyl]-phosphonic acid] | – | – | – | – | – | – | – | – | 3810 |
| 551 | 2480 | 2530 | 177 | 1380 | 2440 | 2980 | CC(C)Oc1nc(N)nc2c1ncn2CCOCP(=O)(O)O [Example 3, [2-(2-Amino-6-isopropoxy-purin-9-yl)-ethoxymethyl]-phosphonic acid] | – | – | – | – | – | – | – | – | 2450 |
| 4 | 61 | 1090 | 2 | 11 | 13 | 52 | CCCCOC(=O)[C@H](C)NP(=O)(COCCn1cnc2c(OCCC)nc(N)nc21)N[C@@H](C)C(=O)OCCCC [Example 13] | – | – | – | – | – | – | – | – | 105 |
| 29 | 266 | > 10000 | 28 | 275 | 488 | 381 | CCCOc1nc(N)nc2c1ncn2CCOCP(=O)(N[C@@H](C)C(=O)OCC)N[C@@H](C)C(=O)OCC [Example 14] | – | – | – | – | – | – | – | – | 202 |
| 7 | 102 | 1280 | 3 | 26 | 18 | 81 | CCCOc1nc(N)nc2c1ncn2CCOCP(=O)(N[C@@H](Cc1ccccc1)C(=O)OCC)N[C@@H](Cc1ccccc1)C(=O)OCC [Example 15] | – | – | – | – | – | – | – | – | 112 |
| 2 | 120 | 869 | – | 3 | 7 | 13 | CCCCOC(=O)[C@H](C)NP(=O)(COCCn1cnc2c(OCCCC)nc(N)nc21)N[C@@H](C)C(=O)OCCCC [Example 36] | – | – | – | – | – | – | – | – | 11 |
| 1 | 17 | 1520 | – | 32 | 11 | 102 | CCCCOC(=O)[C@H](C)NP(=O)(COCCn1cnc2c(OC3CC3)nc(N)nc21)N[C@@H](C)C(=O)OCCCC [Example 43] | – | – | – | – | – | – | – | – | 32 |
